Experiment [1] deals with T1, FAP enzyme activity in mouse plasma (Mus musculus, UniProt P97321).
T1 construct: tissue Charles River; host or cells: plasma of male C57Bl/6 mice after oral dosing
T1 sequence (P97321 24-761 limits assumed): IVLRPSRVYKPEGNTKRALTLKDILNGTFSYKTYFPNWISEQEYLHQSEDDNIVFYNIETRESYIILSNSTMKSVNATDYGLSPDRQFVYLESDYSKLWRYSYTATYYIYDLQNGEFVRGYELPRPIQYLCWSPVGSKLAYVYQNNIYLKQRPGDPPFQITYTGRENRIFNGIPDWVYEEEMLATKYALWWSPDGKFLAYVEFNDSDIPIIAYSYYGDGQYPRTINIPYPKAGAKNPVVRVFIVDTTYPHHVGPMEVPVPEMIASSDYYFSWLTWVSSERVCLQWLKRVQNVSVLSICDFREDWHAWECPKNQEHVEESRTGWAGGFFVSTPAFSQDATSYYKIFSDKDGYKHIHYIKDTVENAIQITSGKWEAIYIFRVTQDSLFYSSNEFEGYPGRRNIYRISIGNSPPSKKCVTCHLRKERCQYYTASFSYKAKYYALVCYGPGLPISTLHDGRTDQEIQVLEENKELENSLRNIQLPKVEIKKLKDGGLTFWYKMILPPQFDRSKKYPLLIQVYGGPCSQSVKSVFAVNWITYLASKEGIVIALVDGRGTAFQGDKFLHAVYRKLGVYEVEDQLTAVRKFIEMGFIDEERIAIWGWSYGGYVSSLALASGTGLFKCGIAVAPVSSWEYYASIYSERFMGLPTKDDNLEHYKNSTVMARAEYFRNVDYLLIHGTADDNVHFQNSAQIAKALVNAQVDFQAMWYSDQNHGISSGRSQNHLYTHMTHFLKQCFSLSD
Briefly: FAP target engagement enzyme activity in mouse plasma (in vivo). Conditions: male C57Bl/6 mice, single oral dose 3 or 10 mg/kg; exposure vs plasma FAP activity, Imax fixed to 1. The procedure: The effect of test compound on FAP enzyme activity in mouse plasma was evaluated in an enzymatic assay using the Fibroblast Activation Protein alpha (FAP) specific fluorogenic substrate dipeptide-Coumarin, Ala-Pro-AMC, (ARI-3144). In this assay, FAP cleaves Ala-Pro-AMC to release free AMC which is measured as a fluorescent signal that correlates with enzyme activity.
Male C57Bl/6 mice (Charles River, Germany), 8 weeks of age, were single housed in a temperature-controlled room with a 12-hour light/dark cycle (06:00-18:00 light). The mice had ad libitum access to water and rodent chow diet (R70, Lactamin, Kimstad, Sweden), and were acclimated for 5 days upon arrival. After acclimation, all mice received a single oral dose of test compound (3 or 10 mg/kg). Blood samples for whole blood compound exposure measurements were taken at 0.25, 0.5, 1, 2, 4, 8 and 24 h post oral dosing. Samples were collected in EDTA capillary tubes (20 μL, K2E, REF 19.447) and were transferred to a 96-deep well plate (NUNC, Thermo Discher Scientific) and stored at −20° C. until further analyses were performed. […]
Recombinant human FAP (PB-17-1837, construct PL-17-0278, cd33-FAP (27-757)-6His, Mw85926 Da) was used as a standard for this assay. […] The plates were read on a Beckman Paradigm reader with excitation 360 nm and emission 465 nm. Fluorescence measurements were performed with kinetic read every 5 minutes for 60 min at rt. Data were analyzed in Excel (IDBS XLfit Add-In) using a Linear Regression (y=k*x+m) model to prepare a human recombinant FAP standard curve.
On the day of the assay, plasma was diluted (1:2) to 20 μL volume in buffer (PBS, 0.1% BSA) and 7.5 μL was transferred to the assay plate (384-well black, fluotrack PS, Greiner 781076). […] The plates were read on a Beckman Paradigm reader with excitation 360 nm and emission 465 nm. Fluorescence measurements were performed with kinetic read every 5 minutes for 60 minutes at rt. As noted above, FAP cleaves Ala-Pro-AMC to release free AMC which is measured as a fluorescent signal. […]

The target of experiment [2] is T2, human dipeptidylpeptidase 9 (hDPP9) (Homo sapiens, UniProt Q86TI2).
T2 construct: purchased BPS Bioscience 80090
T2 sequence (Q86TI2 whole entry): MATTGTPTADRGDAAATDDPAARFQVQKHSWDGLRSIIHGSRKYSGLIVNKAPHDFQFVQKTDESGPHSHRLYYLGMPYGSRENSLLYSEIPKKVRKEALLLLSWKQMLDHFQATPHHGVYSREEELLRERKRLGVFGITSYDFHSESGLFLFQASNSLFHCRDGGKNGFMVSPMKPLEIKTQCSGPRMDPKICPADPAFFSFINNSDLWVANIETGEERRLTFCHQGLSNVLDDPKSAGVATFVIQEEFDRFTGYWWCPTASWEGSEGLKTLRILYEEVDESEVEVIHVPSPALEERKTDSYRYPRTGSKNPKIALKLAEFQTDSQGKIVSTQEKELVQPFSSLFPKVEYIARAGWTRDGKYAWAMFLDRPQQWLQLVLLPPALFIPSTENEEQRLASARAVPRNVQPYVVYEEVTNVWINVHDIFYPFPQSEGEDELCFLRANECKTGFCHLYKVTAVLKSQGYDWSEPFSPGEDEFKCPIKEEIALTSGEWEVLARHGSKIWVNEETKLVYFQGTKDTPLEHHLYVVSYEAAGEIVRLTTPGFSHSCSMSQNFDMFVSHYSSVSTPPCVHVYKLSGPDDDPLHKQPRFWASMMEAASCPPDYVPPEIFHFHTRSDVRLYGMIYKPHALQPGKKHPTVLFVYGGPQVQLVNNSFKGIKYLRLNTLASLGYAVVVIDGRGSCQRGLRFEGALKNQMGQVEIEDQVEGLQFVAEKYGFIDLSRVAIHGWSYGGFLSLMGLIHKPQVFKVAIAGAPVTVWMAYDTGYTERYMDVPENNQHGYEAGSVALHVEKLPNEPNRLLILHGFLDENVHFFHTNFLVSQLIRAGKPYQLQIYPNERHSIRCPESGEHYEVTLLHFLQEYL
Briefly: hDPP9 inhibition assay. The settings on record: hDPP9 0.4 nM, Ala-Pro-amino-methylcoumarin 5 μM; n = 1. The class given is biochemical. The procedure:
Compounds were tested in a biochemical inhibition assay using human dipeptidylpeptidase 9 (hDPP9) enzyme at 0.4 nM FAC (BPS Bioscience, #80090) and the substrate Ala-Pro-amino-methylcoumarin (BPS Bioscience #80305) at 5 μM FAC. The enzymatic reactions were conducted in duplicate at rt for 30 min in 50 μL DPP assay buffer (BPS Bioscience, #80300). Compound solutions (in DMSO) at 10 CR, 3 fold dilution series were prepared in assay buffer ten-fold higher than the final concentration, and 5 μL of the dilution was added to a 50 μL reaction so that the highest compound concentration was 100 μM FAC and the concentration of DMSO was 1% in all wells. The plates were read on a Tecan Infinite M1000 microplate reader with excitation 340 nm and emission 460 nm. Data were analyzed in Graph Pad Prism. […] Raw data signals were normalized using 1% DMSO as 0% control and no enzyme as 100% inhibitor control.

Consider 3 molecules from patent publication US20260070899A1, “N-(2-(4-CYANOTHIAZOLIDIN-3-YL)-2-OXOETHYL)-QUINOLINE-4-CARBOXAMIDES” (AstraZeneca AB, priority 2022, published 2026).

With `CO[C@H]1CC[C@H](c2ccc3nccc(C(=O)NCC(=O)N4CSC[C@H]4C#N)c3c2)CC1` (single isomer, unassigned) [Example 78, N-(2-((R)-4-Cyanothiazolidin-3-yl)-2-oxoethyl)-6-((1r,4R*)-4-methoxycyclohexyl)quinoline-4-carboxamide], half-maximal inhibition in experiment [1] (IC50) required 2.6 nM. `CC(C)(F)COc1ccc2nccc(C(=O)NCC(=O)N3CSC[C@H]3C#N)c2c1` [Example 3, (R)—N-(2-(4-Cyanothiazolidin-3-yl)-2-oxoethyl)-6-(2-fluoro-2-methylpropoxy)quinoline-4-carboxamide]: the values for the IC50 in experiment [2] and in experiment [1] were 1900 nM and 7.6 nM, respectively. Molecule `N#C[C@@H]1CSCN1C(=O)CNC(=O)c1ccnc2ccc(C3CCOCC3)cc12` [Example 20, (R)—N-(2-(4-Cyanothiazolidin-3-yl)-2-oxoethyl)-6-(tetrahydro-2H-pyran-4-yl)quinoline-4-carboxamide] gave an IC50 in experiment [1] of 8.8 nM.

A word on the IC50: it is the point on the concentration scale where inhibition reaches its midpoint. High values mean a need for much substance, low ones inhibition by little substance.
